Measurements reported in patent US20130239239A1, “LMCD1 CANCER MARKERS AND METHODS FOR THEIR USE” (Academia Sinica, priority 2012, published 2013).

Tests used:
[1] = tested on: LMCD1 transfectants in SK-Hep1 cells; assay: Lamellipodia formation (Arp3 staining, cell morphology) in LMCD1 transfectants; format: cell-based, human; settings: LMCD1-E135K and LMCD1-K237R cells
Excerpt: Coverslips were mounted on slides using […] mounting medium with DAPI (Vector Laboratories).

[2] = tested on: LMCD1 transfectants in SK-Hep1 cells; assay: Wound healing assay in LMCD1 stable transfectants of SK-Hep1 cells; settings: dose dependent
Experimental: To test the hypothesis that LMCD1 mutants play a role in cell migration regulation, three different cell migration assays for reflecting alteration of directed migration, random migration, and chemotaxis were performed. Directed migration of these SK-Hep1 transfectants was inspected by wound healing assay. For the wound healing assay, cells were seeded in a 6-well plate at a confluent density and cultured overnight to grow into a monolayer. The culture was scratched with a p200 pipette tip, and the wound was allowed to close for 20 hours. The average reduction of distance between two wound edges was calculated to evaluate the rate of wound closure. […] Cells were photographed immediately after wounding (FIG. 7a upper) and 2 hours after wounding (FIG. 7a lower), with arrows indicating protrusion of cells at the wound edge. […] Images were obtained using an Olympus BX51 fluorescence microscope or a PerkinElmer Ultra View confocal microscope (PerkinElmer Life Sciences).
The bar graph to the right of the images in FIG. 4c provides quantification of average migration results, normalized to the mock cells (±SEM).

PLC/PRF/5 cells = assay: Trans-well migration assay in PLC/PRF/5 cells; format: cell-based, human; settings: 10 nM 17β-estradiol, 24 hours
Experimental: For trans-well assay, 1×10^4 cells resuspended in serum-free medium were seeded into the upper chamber of an insert with an 8.0-μm pore size of polycarbonate membrane (BD Biosciences) and then placed into the bottom chamber containing 10% FBS as chemoattractant. Cells were allowed to migrate for 24 hours followed by methanol fixation and Giemsa staining (MERCK Darmstadt, Germany). Un-migrated cells on the membrane apical side were removed. Migrated cells were photographed with a phase contrast microscope and the number was counted by using Image-Pro Plus software. All experiments were performed in triplicates. […] Images in the top panel of FIG. 3e are representative of three independent experiments performed in triplicate. Quantification of average migrated cell number is shown in bar graphs below the images (±SEM).
(§1) Trans-well migration assays were performed as in Example 3. Expression of LMCD1-K237R in PLC/PRF/5 cells (1×10^5 cells) was induced by exposure to 10 nM 17β-estradiol. Results are provided in FIG. 4d, with some cells also being treated with the indicated shRNA. Images in FIG. 4d are representative of migration results from three independent experiments, with (+E2) and without (−E2) estradiol treatment. The migration results are quantified by bar graph in FIG. 4e (±SEM). […]

LMCD1-K237R = LMCD1-K237R expression in PLC/PRF/5 cells by reverse-transcription PCR; format: cell-based, human; settings: 10 nM 17β-estradiol
Experimental: Five independent pLKO.1 lentiviral-based shRNA clones targeting human LMCD1 (NM_014583) from The RNAi Consortium (TRC) library were tested. […] Human shRNA for RAC1 (shRac1) was also obtained from TRC library with number TRCN0000004870: 5′-[…]-3′. pLKO.1-shLuc was used as control. To generate shRNA lentiviral particles, HEK293T cells were co-transfected with a plasmid mixture (pLKO.1-puro-shRNA, pCMVΔR8.91 packaging plasmid, and pMD.G envelope plasmid) by calcium phosphate protocol. Cell medium containing viral particles was collected three times at 24-hour intervals after transfection. The virus-containing medium was aliquoted and used to infect cells or stored at −80° C. until use. Ninety-six hours after infection, cells were subjected to further experimental assays or harvested for LMCD1 or Rac1 gene expression analysis by RT-PCR or Western blotting.
as §1

[3] = tested on: Rac1 interaction with Rac1-specific GEFs TrioN, GEF-H1 and Tiam1; settings: cited from earlier work

## CCN(CC)CCCC(C)Nc1nc(C)cc(Nc2ccc3nc(C)cc(N)c3c2)n1 (centres unmarked) [NSC23766]
[1]
  lamellipodia extension: inhibited lamellipodia extension
[2]
  cell mobility (wound closure): decreased

## C[C@]12CC[C@@H]3c4ccc(O)cc4CC[C@H]3[C@@H]1CC[C@@H]2O [estrogen, 17β-estradiol]
PLC/PRF/5 cells
  cell migration: up-regulate
LMCD1-K237R
  expression of LMCD1-K237R: up-regulate

## Rac1 Inhibitor W56: peptide comprising residues 45-60 of the guanine nucleotide exchange factor (GEF) recognition/activation site of Rac1 (MVDGKPVNLGLWDTAG; UniProt P63000 45-60, looked up, fragment)
[3]
  inhibition of Rac1 interaction with Rac1-specific GEFs TrioN, GEF-H1 and Tiam1: selectively inhibits
